# In article PMC6199744, “Development of Chemical Proteomics for the Folateome and Analysis of the Kinetoplastid Folateome” (ACS Infectious Diseases, 2018):
# Test system: L. major lysate proteins
# Experiment: Multitargeted bead mixture chemoproteomics, single concentration competition, proteome-wide
# Format: binding
# Conditions: for fold change: vehicle control = 1
compound,measurement,setting,value
"Nc1nc2c(c(=O)[nH]1)N(C=O)C(CNc1ccc(C(=O)N[C@@H](CCC(=O)O)C(=O)O)cc1)CN2 (stereo partly drawn) [LEU, leucovorin]",fold change vs vehicle control,"protein LMJF.28.0490 PROPIONYL-COA C[…] CHAIN, PUTATIVE",1.09
same,fold change,"protein LMJF.28.0710 HYPOTHETICAL PROTEIN, CONSERVED (SNARE associated Golgi protein, putative)",0.76
same,fold change vs vehicle control,"protein LMJF.28.0930 HYPOTHETICAL PROTEIN, CONSERVED",0.9
same,fold change vs vehicle control,protein LMJF.28.0960 40S RIBOSOMAL PROTEIN S14,1.06
same,fold change vs vehicle control,"protein LMJF.28.1530 ATP DEPENDENT DEAD-BOX HELICASE, PUTATIVE",0.95
same,fold change relative to vehicle control,"protein LMJF.28.1730, […]-ATP-ASE SUBUNIT 2, PUTATIVE",1.27
same,fold change vs vehicle control,"protein LMJF.28.2430 VACUOLAR ATP SYNTHASE SUBUNIT B, PUTATIVE",1.01
same,fold change relative to vehicle control,"protein LMJF.28.2770, HEAT-SHOCK PROTEIN HSP70, PUTATIVE",1.32
same,fold change,"protein LMJF.28.2910 GLUTAMATE DEHYDROGENASE, PUTATIVE",1.1
same,fold change vs vehicle control,"protein LMJF.29.0120 […]-ATPASE SUBUNIT, PUTATIVE",1.15
same,fold change,"protein LMJF.29.0620 ATP-BINDING CASSETTE PROTEIN SUBFAMILY A, MEMBER 10, PUTATIVE",0.8
same,fold change vs vehicle control,"protein LMJF.29.0760 […] BI[…], PUTATIVE,HEAT SHOCK PROTEIN 90, PUTATIVE",1.05
same,fold change relative to vehicle control,"protein LMJF.29.0850, HIGH MOBILITY GROUP PROTEIN HOMOLOG TDP-1, PUTATIVE",2.2
same,fold change vs vehicle control,"protein LMJF.29.0940 HY[…], CONSERVED",1.06
same,fold change vs vehicle control,protein LMJF.29.1160 TRYPAREDOXIN,1.05
same,fold change vs vehicle control,"protein LMJF.29.1240 HYPOTHETICAL PROTEIN, UNKNOWN FUNCTION",0.99
same,fold change vs vehicle control,protein LMJF.29.1270 100 kDa heat shock protein (Hsp100),0.99
same,fold change vs vehicle control,"protein LMJF.29.1310 CARNITINE/CHOLINE ACETYLTRANSFERASE, PUTATIVE",0.93
same,fold change relative to vehicle control,"protein LMJF.29.1760, PAR[…] PROTEIN 1D, PUTATIVE",1.22
same,fold change vs vehicle control,"protein LMJF.29.1780 D[…] PROTEIN, PUTATIVE",1.01
same,fold change,"protein LMJF.29.2200 GTP-BINDING PROTEIN, PUTATIVE (dynamin-1-like protein)",0.99
same,fold change,protein LMJF.29.2310 ENOYL-COA HYDRATASE/ISOMERASE-LIKE PROTEIN,0.93
same,fold change vs vehicle control,"protein LMJF.29.2360 ASPARTYL AMINOPEPTIDASE, PUTATIVE,METALLO-PEPTIDASE, CLAN MH, FAMILY M20",1.08
same,fold change,protein LMJF.29.2860 40S RIBOSOMAL PROTEIN S19-LIKE PROTEIN,1.01
same,fold change,"protein LMJF.30.0580 HYPOTHETICAL PROTEIN, CONSERVED (AMP-binding enzyme, putative)",0.99
same,fold change,"protein LMJF.30.0850 SURFACE PROTEIN AMASTIN, PUTATIVE",0.99
same,fold change vs vehicle control,"protein LMJF.30.1250 PYRIDOXAL KINASE, PUTATIVE",1.08
same,fold change vs vehicle control,"protein LMJF.30.2580 RETICULON DOMAIN PROTEIN, 22 KDA POTENTIALLY AGGRAVATING PROTEIN (PAPLE22)",0.97
same,fold change relative to vehicle control,"protein LMJF.30.3090, HY[…], CONSERVED (RNA-binding protein 42, putative)",1.16
same,fold change vs vehicle control,"protein LMJF.30.3240 GLUTAMYL-TRNA SYNTHETASE, PUTATIVE",0.9
same,fold change,"protein LMJF.30.3380 PAS-DOMAIN CONTAINING PHOSPHOGLYCERATE KINASE, PUTATIVE",0.97
same,fold change,"protein LMJF.30.3430 HYPOTHETICAL PROTEIN, CONSERVED (protein mkt1, putative)",0.93
same,fold change,protein LMJF.30.3520 S-ADENOSYLMETHIONINE SYNTHETASE,0.9
same,fold change,"protein LMJF.30.3570 ZINC FINGER-DOMAIN PROTEIN, PUTATIVE",0.81
same,fold change relative to vehicle control,"protein LMJF.31.0080, HY[…], CONSERVED",1.25
same,fold change vs vehicle control,"protein LMJF.31.0340 AMINO ACID PERMEASE, PUTATIVE",1.03
same,fold change,"protein LMJF.31.1130 N-ACYL-L-AMINO ACID AMIDOHYDROLASE, PUTATIVE",1
same,fold change vs vehicle control,protein LMJF.31.1640 THIOLASE PROTEIN-LIKE PROTEIN,1.02
same,fold change relative to vehicle control,"protein LMJF.31.2150, PROSTAGLANDIN F2-ALPHA SYNTHASE/D-ARABINOSE DEHYDROGENASE",1.25
same,fold change vs vehicle control,"protein LMJF.31.2250 3,2-TRANS-ENOYL-COA ISOMERASE, MIT[…], PUTATIVE",0.92
same,fold change vs vehicle control,"protein LMJF.32.0750 RNA BINDING PROTEIN, PUTATIVE",1.05
same,fold change vs vehicle control,"protein LMJF.32.1060 DYNEIN, PUTATIVE",1.02
same,fold change relative to vehicle control,"protein LMJF.32.1820, IRON […], PUTATIVE",1.22
same,fold change relative to vehicle control,"protein LMJF.32.2320, C-14 STEROL REDUCTASE, PUTATIVE",1.12
same,fold change vs vehicle control,protein LMJF.32.3870 MYOSIN XXI,0.9
same,fold change relative to vehicle control,"protein LMJF.33.0240, THIOL-DEPENDENT REDUCTASE 1",1.13
same,fold change,"protein LMJF.33.0280 HYPOTHETICAL PROTEIN, CONSERVED",0.89
same,fold change relative to vehicle control,"protein LMJF.33.0890, HY[…], CONSERVED",0.98
same,fold change vs vehicle control,"protein LMJF.33.1070 HY[…], UNKNOWN FUNCTION",1.03
same,fold change vs vehicle control,"protein LMJF.33.1330 CYSTEINE CONJUGATE BETA-LYASE, AMINOTRANSFERASE- LIKE PROTEIN",0.87
same,fold change,"protein LMJF.33.1590 HY[…], CONSERVED (3-ketoacyl-CoA reductase, putative)",1.46
same,fold change relative to vehicle control,"protein LMJF.33.1860, ATP-BINDING CASSETTE PROTEIN SUBFAMILY D, MEMBER 3, PUTATIVE",1.04
same,fold change relative to vehicle control,"protein LMJF.33.2340, SUCCINYL-COA:3-KETOACID-COENZYME A TRANSFERASE, MIT[…], PUTATIVE",1.09
same,fold change relative to vehicle control,"protein LMJF.33.2440, HY[…], CONSERVED",1.07
same,fold change relative to vehicle control,"protein LMJF.33.2540, CARBOXYPEPTIDASE, PUTATIVE,METALLO-PEPTIDASE, CLAN MA(E), FAMILY M32",1.95
same,fold change,"protein LMJF.33.3150 40S RIBOSOMAL PROTEIN S13, PUTATIVE",0.89
same,fold change relative to vehicle control,"protein LMJF.34.0140, MALATE DEHYDROGENASE",1.53
same,fold change vs vehicle control,protein LMJF.34.0440 RIBOSOMAL PROTEIN S25,1.25
same,fold change relative to vehicle control,"protein LMJF.34.2580, HY[…], CONSERVED (ALBA-domain protein 3)",1.01
same,fold change relative to vehicle control,"protein LMJF.34.3250, PUTATIVE PYRUVATE/INDOLE-PYRUVATE CARBOXYLASE, PUTATIVE",1.08
same,fold change,"protein LMJF.34.4370 20S PROTEASOME BETA 7 SUBUNIT, (PUTATIVE)",0.92
same,fold change vs vehicle control,"protein LMJF.34.4620 HYPOTHETICAL PROTEIN, CONSERVED",0.95
same,fold change,"protein LMJF.35.0070 PROHIBITIN, PUTATIVE",0.93
same,fold change vs vehicle control,"protein LMJF.35.0360 ENOYL-COA HYDRATASE/ISOMERASE FAMILY PROTEIN, CONSERVED",1.24
same,fold change,"protein LMJF.35.0370 ATP-DEPENDENT DEAD-BOX RNA HELICASE, PUTATIVE",0.97
same,fold change,"protein LMJF.35.0420 40S RIBOSOMAL PROTEIN S3A, PUTATIVE",1.03
